Legend:
Assay type in all cases: cell-based
MCF-7 = assay: MTT assay (anti-proliferative activity); details: Homo sapiens, MCF7, 96 h continual exposure, read-out: IC 50 MCF-7
Experimental: (§1) The MTT assay was used initially to determine the anti-proliferative activity of the test compounds. In the MTT assay a yellow thiazolyl blue tetrazolium bromide salt (MTT) is reduced, in metabolically active cells, to form insoluble purple formazan crystals which are solubilised by the addition of dimethyl sulphoxide (DMSO).
(§2) Wells containing medium only were used as blanks. Following the attachment period, cells were treated with appropriate drug concentrations (20 μl added per well). 40 mg/ml stock drug solutions, in DMSO, were stored at −20° C. and on the day of drug treatment working solutions of 4 mg/ml were prepared in medium which was further diluted to achieve final drug dilution volumes of 20 μl. Initial screening was determined over a concentration range of 1-200 μg/ml. […] Cells were exposed to drug for 96 h continual exposure (37° C., 5% CO2). Following the 96 h incubation, 50 μl MTT solution (1 g MTT/500 ml PBS) was added per well and the plates were further incubated for 4 h (37° C., 5% CO2). After incubation the MTT and medium was removed from the wells and 100 μl DMSO added per well. Plates were agitated on an orbital mixer platform (Stuart Scientific) for 10 minutes. Absorbance was measured at 570 nm on a Biotrak II (Amersham Bioscience) plate reader. IC50 values were calculated comparing control and drug treated cells.

MDA-MB-468 = assay: MTT assay (anti-proliferative activity); details: Homo sapiens, MDA-MB-468, 96 h continual exposure, read-out: IC 50 MDA-MB-468
Experimental: as §1, §2

SkMel28 = assay: MTT assay (anti-proliferative activity); details: Homo sapiens, SK-MEL-28, 96 h continual exposure, read-out: IC 50 SkMel28
Experimental: as §1, §2

MalMe3M = assay: MTT assay (anti-proliferative activity); details: Homo sapiens, Malme-3M, 96 h continual exposure, read-out: IC 50 MalMe3M
Experimental: as §1, §2

[1] = system: breast cancer (MDA-MB-468 and MCF-7 cell lines) and melanoma cell lines (MalMe3, SkMe128); assay: Cell cycle analysis by flow cytometry (propidium iodide); apoptosis as cells in sub G0/G1 (pre G0) peak; details: following treatment with IC70 concentration of compound
Experimental: Assessment of cell cycle analysis was performed using propidium iodide staining of cells and subsequent analysis on a Beckton Dickinson flow cytometer. […] The following day the medium was removed and replaced with 5 ml medium per flask containing the appropriate drug concentrations to be tested. 40 mg/ml stock drug solutions in DMSO were stores at −20° C. and on the day off drug treatment working solutions of 4 mg/ml were prepared in medium from which the final drug dilutions were prepared. Cells were maintained in an incubator (37° C., 5% CO2) for up to 96 h post treatment. After 24, 48, 72 or 96 h time points the medium from each flask was collected, stored on ice, and the remaining cells in the flasks were trypsinised by aiding 1 ml trypsin-EDTA solution to each flask. Cells were replaced into the incubator for 10 min to allow them to detach from the plastic plate. The cells in each flask were collected by adding the appropriate medium removed from each flask back to the corresponding flask and then placing medium containing both the attached and floating cells into a 15 ml tube. Cells were centrifuged at 4° C. for 5 min at 1500 rpm and the supernatant removed from each tube. The remaining cells were washed twice in ice cold PBS and then fixed in ice cold methanol overnight at −20° C. On the day of analysis of cells each tube was centrifuged at 4° C. for 5 min at 1500 rpm and the methanol removed and the cells washed twice in ice cold PBS. 20 μl propidium iodide solution (1 mg/ml) and 20 μl RNase A (10 mg/ml solution) were added to 1 ml PBS per tube and the cells were incubated for 30 min at 37° C. Cells were analysed on the flow cytometer and cell cycle changes were assessed.

RKO = assay: MTT assay (anti-proliferative activity); details: Homo sapiens, RKO
Text: as §1, with “(DMSO). Absorbance readings can then be determined spectrophotometrically and a relationship established between control untreated cells and drug treated cells enabling the quantification of anti-proliferative changes as a result of drug treatment (Mosmann, 1983).” for “(DMSO).”
(§3) Wells containing medium only were used as blanks. Following the attachment period, cells were treated with appropriate drug concentrations (20 μl added per well). 40 mg/ml stock drug solutions, in DMSO, were stored at −20° C. and on the day of drug treatment working solutions of 4 mg/ml were prepared in medium which was further diluted to achieve final drug dilution volumes of 20 μl. Initial screening was determined over a concentration range of 1-200 μg/ml. For potent compounds the assay was repeated over a narrower concentration range to determine accurate IC50 values. Cells were exposed to drug for 96 h continual exposure (37° C., 5% CO2). Following the 96 h incubation, 50 μl MTT solution (1 g MTT/500 ml PBS) was added per well and the plates were further incubated for 4 h (37° C., 5% CO2). After incubation the MTT and medium was removed from the wells and 100 μl DMSO added per well. Plates were agitated on an orbital mixer platform (Stuart Scientific) for 10 minutes. Absorbance was measured at 570 nm on a Biotrak II (Amersham Bioscience) plate reader. IC50 values were calculated comparing control and drug treated cells.

HT29 = assay: MTT assay (anti-proliferative activity); details: Homo sapiens, HT-29
Text: as §1, with “(DMSO). Absorbance readings can then be determined spectrophotometrically and a relationship established between control untreated cells and drug treated cells enabling the quantification of anti-proliferative changes as a result of drug treatment (Mosmann, 1983).” for “(DMSO).”
as §3

HCT+/+ = assay: MTT assay (anti-proliferative activity)
Text: as §1, with “(DMSO). Absorbance readings can then be determined spectrophotometrically and a relationship established between control untreated cells and drug treated cells enabling the quantification of anti-proliferative changes as a result of drug treatment (Mosmann, 1983).” for “(DMSO).”
as §3

H157 = assay: MTT assay (anti-proliferative activity); details: Homo sapiens, NCI-H157
Text: as §1, with “(DMSO). Absorbance readings can then be determined spectrophotometrically and a relationship established between control untreated cells and drug treated cells enabling the quantification of anti-proliferative changes as a result of drug treatment (Mosmann, 1983).” for “(DMSO).”
as §3

PC3 = assay: MTT assay (anti-proliferative activity); details: Homo sapiens, PC-3
Text: as §1, with “(DMSO). Absorbance readings can then be determined spectrophotometrically and a relationship established between control untreated cells and drug treated cells enabling the quantification of anti-proliferative changes as a result of drug treatment (Mosmann, 1983).” for “(DMSO).”
as §3

PNT2 = assay: MTT assay (anti-proliferative activity); details: Homo sapiens, PNT2
Text: as §1, with “(DMSO). Absorbance readings can then be determined spectrophotometrically and a relationship established between control untreated cells and drug treated cells enabling the quantification of anti-proliferative changes as a result of drug treatment (Mosmann, 1983).” for “(DMSO).”
as §3

ZR-75-1 = assay: MTT assay (anti-proliferative activity); details: Homo sapiens, ZR-75-1
Text: as §1, with “(DMSO). Absorbance readings can then be determined spectrophotometrically and a relationship established between control untreated cells and drug treated cells enabling the quantification of anti-proliferative changes as a result of drug treatment (Mosmann, 1983).” for “(DMSO).”
as §3

HCT−/− = assay: MTT assay (anti-proliferative activity)
Text: as §1, with “(DMSO). Absorbance readings can then be determined spectrophotometrically and a relationship established between control untreated cells and drug treated cells enabling the quantification of anti-proliferative changes as a result of drug treatment (Mosmann, 1983).” for “(DMSO).”
as §3

H23 = assay: MTT assay (anti-proliferative activity); details: Homo sapiens, NCI-H23
Text: as §1, with “(DMSO). Absorbance readings can then be determined spectrophotometrically and a relationship established between control untreated cells and drug treated cells enabling the quantification of anti-proliferative changes as a result of drug treatment (Mosmann, 1983).” for “(DMSO).”
as §3

LNCAP = assay: MTT assay (anti-proliferative activity); details: Homo sapiens, LNCaP
Text: as §1, with “(DMSO). Absorbance readings can then be determined spectrophotometrically and a relationship established between control untreated cells and drug treated cells enabling the quantification of anti-proliferative changes as a result of drug treatment (Mosmann, 1983).” for “(DMSO).”
as §3

[2] = system: caspase 3 in MDA-MB-468 breast cancer cells; assay: Western blotting (immunoblot), caspase 3 cleavage; details: concentrations similar to those required to kill MDA-MB-468 breast cancer cells
Experimental: Western blotting was used to assess drug induced changes of cellular proteins. Cells were seeded in P90 tissue culture vessels and treated with drugs at a range of concentrations for 72 and 96 h. Following incubation of cells for the required duration the medium was collected from the cells and attached cells were scraped from the tissue culture vessel and collected into the medium. Excess medium was removed by centrifugation at 4° C. for 5 minutes at […] and the supernatant removed from each tube. The remaining cells were washed twice in ice cold PBS and then incubated on ice with protein extraction buffer (10 mM Tris-HCl, 150 mM NaCl, 1 mM EDTA, 1% Triton-X, 0.1% SDS and a protease inhibitor) for 20 min. Cells were sonicated and centrifuged for 5 min at 4° C. and the supernatant removed for subsequent analysis. Protein samples were stored at −70° C. until analyses. 8, 10 or 12% acrylamide gels were prepared and used depending on size of protein to be determined. Protein concentrations were determined using the BCA™ (bicinchoninic acid) protein determination assay (Pierce) according to manufacturer's guidelines and 30-50 μg protein samples were loaded and separated on the acrylamide gels. Gels were ran at 150V for approximately 2 h at 4° C. Following separation of the protein samples each was transferred to a PVDF transfer membrane (Hybond-P) overnight at 4° C. at 40V. […]

IC50 (MCF-7): 946 µM
IC50 (MDA-MB-468): 283 µM
IC50 (HT29): 561 µM
IC50 (HCT+/+): > 561 µM
IC50 (H157): > 561 µM
IC50 (PC3): 421 µM
IC50 (HCT−/−): > 561 µM
IC50 (LNCAP): > 561 µM
SMILES: CC1Cc2cccc(O)c2C(=O)O1 (racemic) [ALM-9, Racemic Mellein]
IC50 (SkMel28): 821 µM
IC50 (MalMe3M): > 960 µM
% Cells in Pre G0 phase of Cell Cycle [1]: 30.4%
IC50 (RKO): 494 µM
IC50 (PNT2): 421 µM
IC50 (ZR-75-1): 281 µM
IC50 (H23): > 561 µM
cleavage and activation of caspase 3 (immunoblot) [2]: promotes the cleavage and thus the activation of caspase 3

— patent US20090047221A1 (NIPRI LIMITED, priority 2004, published 2009)
